Patent publication US20040082635A1, “Fused cyclic compounds and medicinal use thereof” (priority 2001, published 2004)
Where a name gives a salt, the structure may show the parent alone.

Columns and labels:
HCV polymerase = target: T1, HCV polymerase (Hepatitis C virus genotype 1b, UniProt P26663); assay: biochemical; settings: read-out: HCV polymerase inhibitory activity IC50
T1 construct: a region encoding NS5B (591 amino acids; J Virol 1991 Mar, 65(3), 1105-13) was amplified by PCR; 6 His (N); made in house; host or cells: Escherichia coli

[1] = blood concentration when administered to an animal (statement only, no method); type: in vivo; settings: when administered as a pharmaceutical agent to an animal; in words
HCV type 1a = assay: inhibitory activity on HCV type 1a (statement only, no method); settings: in words
HCV type 1b = assay: inhibitory activity on HCV type 1b (statement only, no method); settings: in words

T1 sequence (P26663 2420-3010): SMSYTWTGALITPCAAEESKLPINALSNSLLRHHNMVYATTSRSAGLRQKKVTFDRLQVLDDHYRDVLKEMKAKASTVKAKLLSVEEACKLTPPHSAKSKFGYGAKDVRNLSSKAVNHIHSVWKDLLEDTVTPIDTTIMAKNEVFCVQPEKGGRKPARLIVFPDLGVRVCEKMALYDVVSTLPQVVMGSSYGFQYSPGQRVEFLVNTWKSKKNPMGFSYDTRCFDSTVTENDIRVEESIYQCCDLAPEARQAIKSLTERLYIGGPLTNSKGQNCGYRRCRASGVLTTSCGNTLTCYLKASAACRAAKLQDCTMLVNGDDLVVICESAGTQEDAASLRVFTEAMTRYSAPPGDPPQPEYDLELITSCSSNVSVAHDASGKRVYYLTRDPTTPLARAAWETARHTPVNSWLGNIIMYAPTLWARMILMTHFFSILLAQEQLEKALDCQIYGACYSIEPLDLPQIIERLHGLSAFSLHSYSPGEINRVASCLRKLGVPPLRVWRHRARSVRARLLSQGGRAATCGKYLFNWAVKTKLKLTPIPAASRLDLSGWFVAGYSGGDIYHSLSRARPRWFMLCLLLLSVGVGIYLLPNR

SMILES	melting point	IC50 (HCV polymerase)	also measured
O=C(O)c1ccc2c(c1)nc(-c1ccc(Oc3cccc(OCc4ccncc4)c3)cc1)n2C1CCCCC1 [Example 30, 1-cyclohexyl-2-{4-[3-(4-pyridylmethoxy)phenyloxy]-phenyl}benzimidazole-5-carboxylic acid]	235 to 237 °C	52 nM	–
O=C(O)c1ccc2c(c1)nc(-c1ccc(Oc3cccc(Br)c3)cc1)n2C1CCCCC1 [Example 2, 2-[4-(3-bromophenoxy)phenyl]-1-cyclohexylbenzimidazole-5-carboxylic acid]	255 to 256 °C	79 nM	–
O=C(O)c1ccc2c(c1)nc(-c1ccc(Oc3cccc(-c4cccc(Cl)c4)c3)cc1)n2C1CCCCC1 [Example 26, 2-{4-[3-(3-chlorophenyl)phenoxy]phenyl}-1-cyclohexylbenzimidazole-5-carboxylic acid]	253 to 254 °C	33 nM	–
O=C(O)c1ccc2c(c1)nc(-c1ccc(OCc3cc(Cl)ccc3-c3ccc(Cl)cc3)cc1)n2C1CCCCC1 [Example 6]	243 to 244 °C	–	–
Cl.O=C(O)c1ccc2c(c1)nc(-c1ccc(OCc3cc(N4CCCC4=O)ccc3-c3ccc(Cl)cc3)cc1F)n2C1CCCCC1 [2-{4-[2-(4-chlorophenyl)-5-(2-oxopyrrolidin-1-yl)benzyloxy]-2-fluorophenyl}-1-cyclohexylbenzimidazole-5-carboxylic acid hydrochloride]	–	–	blood concentration [1]: high blood concentration; inhibitory activity on HCV type 1a (HCV type 1a): high inhibitory activity; inhibitory activity on HCV type 1b (HCV type 1b): high inhibitory activity
COc1ccc(-c2ccc(Cl)cc2)c(COc2ccc(-c3nc4cc(C(=O)O)ccc4n3C3CCCCC3)cc2)c1 [Example 9, 2-{4-[2-(4-chlorophenyl)-5-methoxybenzyloxy]phenyl}-1-cyclohexylbenzimidazole-5-carboxylic acid]	248 to 249 °C	19 nM	–
NC(=O)c1ccc2c(c1)nc(-c1ccc(OCc3ccccc3)cc1)n2C1CCCC1	232 to 233 °C	–	–
O=C(O)c1ccc2c(c1)nc(-c1ccc(OC(c3cccc(F)c3)c3cccc(F)c3)cc1F)n2C1CCCCC1 [Example 20, 2-{4-(bis[3-fluorophenyl]methoxy)-2-fluorophenyl}-1-cyclohexylbenzimidazole-5-carboxylic acid]	242 to 243 °C	42 nM	–
Cl.O=C(O)c1ccc2c(c1)nc(-c1ccc(OCc3cc(N4CCCC4=O)ccc3-c3ccc(Cl)cc3)cc1F)n2C1CCCCC1	243 to 246 °C	–	–
Cc1nc(-c2ccc(F)cc2)c(COc2ccc(-c3nc4cc(C(=O)O)ccc4n3C3CCCCC3)cc2)s1 [Example 17, 1-cyclohexyl-2-{4-[{4-(4-fluorophenyl)-2-methyl-5-thiazolyl}methoxy]phenyl}benzimidazole-5-carboxylic acid]	196 to 198 °C	47 nM	–
O=C(O)c1ccc2c(c1)nc(-c1ccc(OCc3cc(Cl)ccc3-c3ccc(CO)cc3)cc1)n2C1CCCCC1 [Example 294, 2-{4-[3-chloro-6-(4-hydroxymethylphenyl)benzyloxy]phenyl}-1-cyclohexylbenzimidazole-5-carboxylic acid]	–	32 nM	–
O=C(O)COc1ccccc1Oc1ccc(-c2nc3cc(C(=O)O)ccc3n2C2CCCCC2)cc1 [Example 140, 2-[4-(2-carboxymethyloxyphenoxy)phenyl]-1-cyclohexylbenzimidazole-5-carboxylic acid]	–	110 nM	–
O=C(O)c1ccc2c(c1)nc(-c1ccc(OCc3ccccc3-c3ccc(C(F)(F)F)cc3)cc1F)n2C1CCCCC1 [Example 131, 1-cyclohexyl-2-{2-fluoro-4-[2-(4-trifluoromethylphenyl)-benzyloxy]phenyl}benzimidazole-5-carboxylic acid]	–	46 nM	–
CS(=O)(=O)Nc1ccc(-c2ccc(Cl)cc2)c(COc2ccc(-c3nc4cc(C(=O)O)ccc4n3C3CCCCC3)c(F)c2)c1 [Example 455, 2-[4-{2-(4-chlorophenyl)-5-(methylsulfonylamino)benzyloxy}-2-fluorophenyl]-1-cyclohexylbenzimidazole-5-carboxylic acid hydrochloride]	–	15 nM	–
Cc1cnc(-c2ccc(Br)c(COc3ccc(-c4nc5cc(C(=O)O)ccc5n4C4CCCCC4)cc3)c2)o1 [Example 363, 2-{4-[2-bromo-5-(5-methyloxazol-2-yl)benzyloxy]phenyl}-1-cyclohexylbenzimidazole-5-carboxylic acid hydrochloride]	–	110 nM	–
CC(C)CCOc1cccc(Oc2ccc(-c3nc4cc(C(=O)O)ccc4n3C3CCCCC3)cc2)c1 [Example 115, 1-cyclohexyl-2-[4-(3-isopentyloxyphenoxy)phenyl]benzimidazole-5-carboxylic acid]	–	170 nM	–
O=C(O)c1ccc2c(c1)nc(-c1ccc(OCCc3ccccc3)cc1)n2C1CCCC1 [Example 71, 1-cyclopentyl-2-(4-phenethyloxyphenyl)benzimidazole-5-carboxylic acid]	–	620 nM	–
O=C(O)c1ccc2c(c1)nc(-c1ccc(Oc3cccc(-c4cccnc4)c3)cc1)n2C1CCCCC1 [Example 214, 1-cyclohexyl-2-{4-[3-(3-pyridyl)phenoxy]phenyl}benzimidazole-5-carboxylic acid]	–	59 nM	–
CC(C)NC(=O)Nc1ccc(-c2ccc(Cl)cc2)c(COc2ccc(-c3nc4cc(C(=O)O)ccc4n3C3CCCCC3)c(F)c2)c1 [Example 395, 2-{4-[2-(4-chlorophenyl)-5-{(isopropylcarbamoyl)amino}benzyloxy]-2-fluorophenyl}-1-cyclohexylbenzimidazole-5-carboxylic acid hydrochloride]	–	16 nM	–
O=C(O)c1ccc2c(c1)nc(-c1ccc(OCc3ccc(-c4nnn[nH]4)cc3-c3ccc(Cl)cc3)cc1)n2C1CCCCC1 [Example 237, 2-{4-[2-(4-chlorophenyl)-4-(5-tetrazolyl)benzyloxy]phenyl}-1-cyclohexylbenzimidazole-5-carboxylic acid]	–	15 nM	–
O=C(O)c1ccc2c(c1)nc(-c1ccc(Oc3ccccc3Oc3ccccc3)cc1)n2C1CCCCC1 [Example 128, 1-cyclohexyl-2-[4-(2-phenoxyphenoxy)phenyl]benzimidazole-5-carboxylic acid]	–	140 nM	–
O=C(O)c1ccc2c(c1)nc(-c1ccc(OCc3cc(-c4nsc(=O)[nH]4)ccc3-c3ccc(Cl)cc3)cc1F)n2C1CCCCC1 [Example 376, 2-{4-[2-(4-chlorophenyl)-5-(2,5-dihydro-5-oxo-4H-1,2,4-thiadiazol-3-yl)benzyloxy]-2-fluorophenyl}-1-cyclohexylbenzimidazole-5-carboxylic acid hydrochloride]	–	14 nM	–
O=C(O)c1ccc2c(c1)nc(-c1ccc(OCc3cc(C(=O)N4CCC(O)CC4)ccc3-c3ccc(Cl)cc3)cc1F)n2C1CCCCC1 [Example 289, 2-{4-[2-(4-chlorophenyl)-5-(4-hydroxypiperidino)-carbonylbenzyloxy]-2-fluorophenyl}-1-cyclohexylbenzimidazole-5-carboxylic acid]	–	< 10 nM	–
O=C(O)c1ccc2c(c1)nc(-c1ccc(Oc3cccc(OCc4ccccc4)c3)cc1)n2C1CCCCC1 [Example 105, 2-[4-(3-benzyloxyphenoxy)phenyl]-1-cyclohexylbenzimidazole-5-carboxylic acid]	–	76 nM	–
CC(C)N(C)C(=O)c1ccc(-c2ccc(Cl)cc2)c(COc2ccc(-c3nc4cc(C(=O)O)ccc4n3C3CCCCC3)c(F)c2)c1 [Example 386, 2-{4-[2-(4-chlorophenyl)-5-(N-isopropyl-N-methylcarbamoyl)-benzyloxy]-2-fluorophenyl}-1-cyclohexylbenzimidazole-5-carboxylic acid hydrochloride]	–	18 nM	–
O=C(O)c1ccc2c(c1)nc(-c1ccc(OCc3cc(Cl)ccc3-c3cccc(Cl)c3)cc1)n2C1CCCCC1 [Example 169, 2-{4-[3-chloro-6-(3-chlorophenyl)benzyloxy]phenyl}-1-cyclohexylbenzimidazole-5-carboxylic acid]	–	150 nM	–
O=C(O)c1ccc2c(c1)nc(-c1ccc(OCc3cc(C(=O)NC4CC4)ccc3-c3ccc(Cl)cc3)cc1F)n2C1CCCCC1 [Example 377, 2-{4-[2-(4-chlorophenyl)-5-(cyclopropylcarbamoyl)benzyloxy]-2-fluorophenyl}-1-cyclohexylbenzimidazole-5-carboxylic acid hydrochloride]	–	12 nM	–
O=C(O)c1ccc2c(c1)nc(-c1ccc(OC(c3ccccc3)c3ccccc3)cc1)n2C1CCCC1 [Example 70, 1-cyclopentyl-2-[4-(diphenylmethoxy)phenyl]benzimidazole-5-carboxylic acid]	–	190 nM	–
CC(=O)N1CCC(COc2cccc(Oc3ccc(-c4nc5cc(C(=O)O)ccc5n4C4CCCCC4)cc3)c2)CC1 [Example 176, 2-{4-[3-{(1-acetyl-4-piperidyl)methoxy}phenoxy]phenyl}-1-cyclohexylbenzimidazole-5-carboxylic acid]	–	53 nM	–
CC(C)C(=O)N(C)c1ccc(-c2ccc(Cl)cc2)c(COc2ccc(-c3nc4cc(C(=O)O)ccc4n3C3CCCCC3)c(F)c2)c1 [Example 451, 2-[4-{2-(4-chlorophenyl)-5-(N-isopropylcarbonyl-N-methylamino)benzyloxy}-2-fluorophenyl]-1-cyclohexylbenzimidazole-5-carboxylic acid hydrochloride]	–	31 nM	–
